Legend:
Assay in all cases: combination Emax (second highest fraction inhibited in the dose matrix, 72 h); higher = more inhibition; extreme values may be limits of the assay
[1] = tested on: A704 (Kidney Carcinoma)
Procedure, shortened: (§1)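 Bliss excess equals the observed combination effect minus the expected value EA + EB − EA·EB, where EA and EB are the effects of each agent alone. Combination Emax is the second-highest inhibition within the matrix. Inhibition was scaled from CellTiter-Glo 2.0 luminescence, with 0 set by vehicle wells and 1 by blank wells, after 72 hours of two-drug dosing of cells plated in 1536-well plates.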

[2] = tested on: BT-20 (Breast Carcinoma)
Procedure, shortened: as §1

[3] = tested on: EBC-1 (Squamous Cell Lung Carcinoma)
Procedure, shortened: as §1

[4] = tested on: GOTO (Neuroblastoma)
Procedure, shortened: as §1

[5] = tested on: HC-1 (Other Blood Carcinomas)
Procedure, shortened: as §1

[6] = tested on: HSC-2 (Oral Cavity Carcinoma)
Procedure, shortened: as §1

[7] = tested on: HuP-T3 (Pancreatic Carcinoma)
Procedure, shortened: as §1

[8] = tested on: KINGS-1 (Low Grade Glioma)
Procedure, shortened: as §1

[9] = tested on: KLE (Endometrial Carcinoma)
Procedure, shortened: as §1

[10] = tested on: KU-19-19 (Bladder Carcinoma)
Procedure, shortened: as §1

[11] = tested on: LOU-NH91 (Squamous Cell Lung Carcinoma)
Procedure, shortened: as §1

[12] = tested on: NB7 (Neuroblastoma)
Procedure, shortened: as §1

[13] = tested on: NCI-H322M (Lung Adenocarcinoma)
Procedure, shortened: as §1

[14] = tested on: NH-12 (Neuroblastoma)
Procedure, shortened: as §1

[15] = tested on: OCUB-M (Breast Carcinoma)
Procedure, shortened: as §1

[16] = tested on: PF-382 (T-Lymphoblastic Leukemia)
Procedure, shortened: as §1

[17] = tested on: RPMI-7951 (Melanoma)
Procedure, shortened: as §1

[18] = tested on: TGBC11TKB (Gastric Carcinoma)
Procedure, shortened: as §1

[19] = tested on: U-87-MG (Glioblastoma)
Procedure, shortened: as §1

[20] = tested on: VMRC-LCD (Lung Adenocarcinoma)
Procedure, shortened: as §1

SMILES | combination Emax [1] | combination Emax [2] | combination Emax [3] | combination Emax [4] | combination Emax [5] | combination Emax [6] | combination Emax [7] | combination Emax [8] | combination Emax [9] | combination Emax [10] | combination Emax [11] | combination Emax [12] | combination Emax [13] | combination Emax [14] | combination Emax [15] | combination Emax [16] | combination Emax [17] | combination Emax [18] | combination Emax [19] | combination Emax [20]
CC1(C)CCC(CN2CCN(c3ccc(C(=O)NS(=O)(=O)c4ccc(NCC5CCOCC5)c([N+](=O)[O-])c4)c(Oc4cnc5[nH]ccc5c4)c3)CC2)=C(c2ccc(Cl)cc2)C1 [Venetoclax] + C=CCn1c(=O)c2cnc(Nc3ccc(N4CCN(C)CC4)cc3)nc2n1-c1cccc(C(C)(C)O)n1 [AZD1775] (first compound max 1 µM, partner max 1 µM) | 0.463 | 0.672 | 0.248 | 0.921 | 1 | 0.833 | 0.399 | 0.567 | 0.51 | 0.841 | 0.436 | 0.722 | 0.862 | 0.952 | 0.754 | 0.986 | 0.731 | 0.942 | 0.265 | 0.391
CC(=O)Nc1cccc(-n2c(=O)n(C3CC3)c(=O)c3c(Nc4ccc(I)cc4F)n(C)c(=O)c(C)c32)c1 [Trametinib] + Cc1nc(-c2cn3c(n2)-c2ccc(-c4cnn(C(C)(C)C(N)=O)c4)cc2OCC3)n(C(C)C)n1 [Taselisib] (first compound max 1 µM, 7x7, partner max 10 µM) | 0.892 | 1 | 1 | 0.701 | 0.665 | 1 | 0.741 | 0.894 | 0.619 | 1 | 0.672 | 0.577 | 0.887 | 0.841 | 1 | 0.905 | 0.931 | 0.86 | 0.837 | 0.212
Cc1c2c(nn1C)CSCc1cc(n(C)n1)CSc1cc(c3ccccc3c1)OCCCc1c(C(=O)O)n(C)c3c-2c(Cl)ccc13 [AZD5991] + CN(C)CCCOc1ccc(-c2ccc3ncc4c(c3c2)n(C2CCOCC2)c(=O)n4C)cn1 [AZD0156] (first compound max 1 µM, 7x7, partner max 1 µM) | 0.24 | 0.636 | 0.251 | 0.757 | 0.37 | 0.835 | 0.213 | 0.278 | 0.262 | 0.253 | 0.47 | 0.499 | 0.279 | 0.226 | 0.949 | 0.337 | 0.945 | 0.476 | 0.253 | 0.2
Cn1cnc2c(F)c(Nc3ccc(Br)cc3Cl)c(C(=O)NOCCO)cc21 [Selumetinib] + CCN(CCO)CCCOc1ccc2c(Nc3cc(CC(=O)Nc4cccc(F)c4)[nH]n3)ncnc2c1 [AZD2811] (first compound max 10 µM, 7x7, partner max 1 µM) | 0.178 | 0.474 | 0.964 | 0.648 | 0.702 | 0.376 | 0.359 | 0.22 | 0.286 | 0.955 | 0.372 | 0.415 | 0.602 | 0.729 | 0.713 | 0.911 | 0.425 | 0.569 | 0.252 | 0.585
CN(CCO)CC[C@H](CSc1ccccc1)Nc1ccc(S(=O)(=O)NC(=O)c2ccc(N3CCC([C@@H](O)c4ccccc4-c4ccc(Cl)cc4)CC3)cc2)cc1S(=O)(=O)C(F)(F)F [AZD4320] + Cc1cc2ncnn2cc1Nc1ncc2c(n1)n(C1CCOCC1)c(=O)n2C [AZD7648] (first compound max 1 µM, 7x7, partner max 10 µM) | 0.563 | 0.606 | 0.947 | 0.633 | 0.58 | 0.461 | 0.153 | 0.466 | 0.337 | 0.119 | 0.346 | 0.0542 | 0.254 | 0.927 | 0.66 | 0.983 | 0.516 | 0.237 | 0.311 | 0.0704
NC1(C(=O)N[C@@H](CCO)c2ccc(Cl)cc2)CCN(c2ncnc3[nH]ccc23)CC1 [Capivasertib] + Cn1cnc2c(F)c(Nc3ccc(Br)cc3Cl)c(C(=O)NOCCO)cc21 [Selumetinib] (first compound max 10 µM, 7x7, partner max 10 µM) | 0.434 | 0.809 | 0.963 | 0.469 | 0.601 | 0.721 | 0.464 | 0.597 | 0.484 | 0.921 | 0.487 | 0.28 | 0.582 | 0.585 | 0.998 | 0.764 | 0.793 | 0.462 | 0.685 | 0.248
NC1(C(=O)N[C@@H](CCO)c2ccc(Cl)cc2)CCN(c2ncnc3[nH]ccc23)CC1 [Capivasertib] + CC(C)n1c(=O)n(C)c2cnc3cc(F)c(-c4ccc(OCCCN5CCCCC5)nc4)cc3c21 [AZD1390] (first compound max 10 µM, 7x7, partner max 0.3 µM) | 0.314 | 0.733 | 0.322 | 0.433 | 0.508 | 0.447 | 0.163 | 0.374 | 0.43 | 0.266 | 0.456 | 0.736 | 0.313 | 0.363 | 1 | 0.612 | 0.662 | 0.13 | 0.578 | 0.0998
CC1(C)CCC(CN2CCN(c3ccc(C(=O)NS(=O)(=O)c4ccc(NCC5CCOCC5)c([N+](=O)[O-])c4)c(Oc4cnc5[nH]ccc5c4)c3)CC2)=C(c2ccc(Cl)cc2)C1 [Venetoclax] + C1CN(CCC1(C(=O)N[C@@H](CCO)C2=CC=C(C=C2)Cl)N)C3=NC=NC4=C3C=CN4 [Capivasertib] (first compound max 1 µM, 7x7, partner max 3 µM) | 0.318 | 0.62 | 0.317 | 0.365 | 0.452 | 0.364 | 0.166 | 0.329 | 0.315 | 0.2 | 0.36 | 0.056 | 0.167 | 0.612 | 0.942 | 0.518 | 0.472 | 0.153 | 0.403 | 0.193
CC1(C)CCC(CN2CCN(c3ccc(C(=O)NS(=O)(=O)c4ccc(NCC5CCOCC5)c([N+](=O)[O-])c4)c(Oc4cnc5[nH]ccc5c4)c3)CC2)=C(c2ccc(Cl)cc2)C1 [Venetoclax] + COc1cc(Nc2ncc3c(n2)-c2ccc(Cl)cc2C(c2c(F)cccc2OC)=NC3)ccc1C(=O)O [Alisertib] (first compound max 1 µM, 7x7, partner max 10 µM) | 0.758 | 0.499 | 0.436 | 0.719 | 0.861 | 0.732 | 0.337 | 0.379 | 0.635 | 0.462 | 0.479 | 0.556 | 0.352 | 0.977 | 0.727 | 0.905 | 0.683 | 0.387 | 0.423 | 0.619
COc1nnc2ccc(N3CCC(c4ccc(OCCN5CCN(C)C(=O)[C@H]5C)cc4)CC3)nn12 [AZD5153] + CCN(CCO)CCCOc1ccc2c(Nc3cc(CC(=O)Nc4cccc(F)c4)[nH]n3)ncnc2c1 [AZD2811] (first compound max 1 µM, 7x7, partner max 1 µM) | 0.497 | 0.185 | 0.764 | 0.858 | 0.572 | 0.662 | 0.597 | 0.193 | 0.674 | 0.665 | 0.743 | 0.441 | 0.507 | 0.739 | 0.69 | 0.98 | 0.613 | 0.311 | 0.603 | 0.816
COc1cc2ncnc(Nc3ccc(F)c(Cl)c3)c2cc1OCCCN1CCOCC1 [Gefitinib] + CC(C)n1c(=O)n(C)c2cnc3cc(F)c(-c4ccc(OCCCN5CCCCC5)nc4)cc3c21 [AZD1390] (first compound max 10 µM, 7x7, partner max 0.3 µM) | 0.439 | 0.244 | 0.0862 | 0.257 | 0.387 | 0.555 | 0.14 | 0.113 | 0.442 | 0.0903 | 0.404 | 0.136 | 0.718 | 0.121 | 0.154 | 0.323 | 0.0802 | 0.296 | 0.0691 | 0.0987
COc1cccc(OCCCN)c1-c1cc(Nc2cnc(C#N)cn2)n[nH]1 [Prexasertib] + CCc1c2c(nc3ccc(O)cc13)-c1cc3c(c(=O)n1C2)COC(=O)[C@]3(O)CC [SN-38] (first compound max 1 µM, 7x7, partner max 0.3 µM) | 0.749 | 0.965 | 0.953 | 0.94 | 1 | 0.95 | 0.855 | 0.691 | 0.593 | 0.959 | 0.936 | 0.985 | 0.982 | 0.935 | 0.989 | 0.994 | 0.997 | 0.982 | 0.74 | 0.769
